Measured values reported in paper PMC10747602, “Dose Response, Dosimetric, and Metabolic Evaluations of Replacement PFAS Perfluoro-(2,5,8-trimethyl-3,6,9-trioxadodecanoic) Acid (HFPO-TeA)” (Toxics, 2023).
Read-outs that look alike come from different tables or passages of the source.

Tests used:
[1] = Ultracentrifugation plasma protein binding assay, rat plasma; type: in vitro ADME; conditions: both sexes, Sprague Dawley, rat
Protocol: (§1) Information on the chemicals and materials used in the plasma protein binding work can be found in Supplementary Text S10 and Table S3. Human and rodent plasma were evaluated for plasma protein binding using ultracentrifugation, as previously described. Working solutions of 3 mM of HFPO-DA, HFPO-TA, and HFPO-TeA were prepared separately in ethanol, with each working solution containing 3 mM of testosterone (Sigma-Aldrich; ≥98% pure) as a reference compound for assay performance. An aliquot of each stock solution (13.3 µL) was added to separate 15 mL tubes with 3.987 mL of plasma for a final assay concentration of 10 µM. The plasma solutions were incubated at 37 °C and 125 rpm for 60 min. One-hour stability samples (T60 min) were drawn in triplicate and diluted in four volumes of plasma ultrafiltrate. Aliquots (1 mL) from each plasma solution were drawn in triplicate and transferred to polycarbonate tubing. These samples underwent ultracentrifugation (Beckman OptimaMax; Beckman Coulter Inc., Brea, CA, USA) at 850,000× g for 4 h at 37 °C.
(§2) The remaining plasma solutions were returned for incubation at 37 °C and 125 rpm for an additional 4 h. Five-hour stability samples (T300 min) were then drawn in triplicate and diluted in four volumes of plasma ultrafiltrate. After ultracentrifugation, the aqueous fraction (AF) was collected by transferring the supernatant to a new tube and diluting in an equal volume of plasma for matrix matching. All samples were combined with 3 volumes of ice-cold ACN containing 16 ng/mL of ^13C3-HFPO-DA and 16 ng/mL of ^13C-Testosterone (Cambridge Isotope Laboratories; 98% pure). Samples were vigorously mixed, stored for 10 min at −20 °C, and then centrifuged at 12,000× g for 10 min at 4 °C. Supernatants were collected then stored at −70 °C prior to analysis.
(§3) Fraction unbound (fu) in plasma (fup) and percent stability calculations are detailed in Supplementary Text S10. Hepatic clearance, the fu in blood (fub) (fu in plasma adjusted for blood:plasma partitioning), and renal clearance were used to derive the steady-state concentration (Css) of each compound that will be used for in vitro–in vivo extrapolation (IVIVE). Renal clearance was calculated using the glomerular filtration rate (a species-dependent constant) and the fub. The Css calculation is detailed in Supplementary Text S11.
(§4) The gradient is available in Table S11. […]
(§5) Chemical stability in plasma was assessed
(§6) (F) Percent Stability = T300minutesT60minutes∗100

[2] = tested on: Sprague Dawley rodent plasma; experiment: as above; type: in vitro ADME; conditions: rat plasma, 10000 nM
Protocol: as §1, §2, §3, §4, §5, §6

[3] = Non-targeted analysis of plasma and liver (in vivo); design: species or system Sprague Dawley rats; conditions: for relative peak area abundance (RA) vs. HFPO-TeA, Plasma: 5 days, mean ± SD n=8
Protocol: Extracts of plasma (50 µL), liver (10 mg), and hepatocyte metabolism assay media (10 µL) were analyzed by high-resolution, accurate mass non-targeted analysis (NTA) for the detection and identification of potential biotransformation products of HFPO-TeA. A mixture of ^13C-labeled PFAS compounds (MPAC-C-ES, Wellington Laboratories, Guelph, ON, Canada) were used as tracers. Samples were extracted, as detailed above (in vivo) and below (in vitro), and then analyzed in triplicate in a randomized order on a Sciex X500R QTOF. Additional information on NTA instrumental analysis and data processing parameters is presented in Supplementary Text S8 and Tables S8 and S10 [52]. […] A screening list of potential biotransformation products was generated using the U.S. EPA web application CTS: Chemical Transformation Simulator 1.0 and Biotransformer 3.0 [53, 54]. In some instances, molecular structure predictions were performed using MetFrag. […]
tube, and then further crashed with 200 µL ACN. This was repeated twice more to generate a final combined supernatant volume of 600 µL. Supernatants were stored at -20 °C prior to analysis.
Samples were quantitated against matrix-matched calibration curves containing a minimum of 5 points spanning the range 0.99 – 141 ng/mg liver (wet weight, ww). For the calibration standards, commercial rat liver (BioIVT) was spiked with HFPO-TeA and PFHxDA, homogenized, and extracted using the above procedure. […]
Support ing Text S8: Non- Target ed Analysis Met hod and Data Processing Each sample batch included a mobile phase blank and solvent blank to monitor for the presence of laboratory contamination, and a system suitability sample consisting of the set of isotopically labeled PFAS tracer compounds spiked into extraction solvent to monitor instrument performance prior to sample analysis. […] A high-resolution, exact mass spectral library created in house from IDA scans of commercially available PFAS standards analyzed on the same mass spectrometer as the samples and using the same instrument parameters was used for library searches. […]

[4] = plasma, Rat plasma, 10 µM, ultracentrifugation, read-out: Experimental fup (average fraction unbound in plasma)
[5] = rat plasma, 10000 nM, Rep A, read-out: Fraction Unbound in plasma (fup), Rep A
[6] = rat plasma, 10000 nM, Rep B, read-out: Fraction Unbound in plasma (fup), Rep B
[7] = rat plasma, 10000 nM, Rep C, read-out: Fraction Unbound in plasma (fup), Rep C

| Structure (SMILES) | fraction unbound at 4 h, 10 µM [1, 4] | fraction unbound at 4 h, 10 µM [1, 5] | fraction unbound at 4 h, 10 µM [1, 6] | fraction unbound at 4 h, 10 µM [1, 7] | Average Stability (T5hr/ T1hr) [2] | Aqueous Fraction, Rep A [2] | Stability (T5hr/ T1hr), Rep A [2] | Time 1 hr concentration, Rep A [2] | Time 5 hr concentration, Rep A [2] | Aqueous Fraction, Rep B [2] | Stability (T5hr/ T1hr), Rep B [2] | Time 1 hr concentration, Rep B [2] | Time 5 hr concentration, Rep B [2] | Aqueous Fraction, Rep C [2] | Stability (T5hr/ T1hr), Rep C [2] | Time 1 hr concentration, Rep C [2] | Time 5 hr concentration, Rep C [2] | presence of predicted conjugates (non-targeted analysis) ([3]; plasma or liver) | relative peak area abundance (RA) vs. HFPO-TeA, Plasma ([3]; HFPO-TeA dose 6.3 mg/kg/day) | relative peak area abundance (RA) vs. HFPO-TeA, Plasma ([3]; HFPO-TeA dose 17 mg/kg/day) |
| --- | --- | --- | --- | --- | --- | --- | --- | --- | --- | --- | --- | --- | --- | --- | --- | --- | --- | --- | --- | --- |
| O=C(O)C(F)(OC(F)(F)C(F)(OC(F)(F)C(F)(OC(F)(F)C(F)(F)C(F)(F)F)C(F)(F)F)C(F)(F)F)C(F)(F)F (stereo not drawn) [HFPO-TeA, perfluoro-(2,5,8-trimethyl-3,6,9-trioxadodecanoic) acid] | 0.0059 | 0.00493 | 0.00519 | 0.00748 | 1.1996 | 38.40 nM | 0.9294 | 8.384 µM | 7.792 µM | 35.20 nM | 1.0392 | 6.528 µM | 6.784 µM | 48.00 nM | 1.6301 | 3.936 µM | 6.416 µM | No ions that suggested the presence of the three predicted HFPO-TeA conjugates were observed | – | – |
| O=C(O)C(F)(OC(F)(F)C(F)(OC(F)(F)C(F)(F)C(F)(F)F)C(F)(F)F)C(F)(F)F (stereo not drawn) [HFPO-TA, perfluoro-(2,5-dimethyl-3,6-dioxanonanoic) acid] | 0.0018 | 0.00165 | 0.00156 | 0.00223 | 1.0261 | 16.00 nM | 0.9209 | 10.52 µM | 9.688 µM | 16.00 nM | 1.1708 | 8.76 µM | 10.256 µM | 22.40 nM | 0.9866 | 10.184 µM | 10.048 µM | – | 0.05 ± 0.04 | 1.83 ± 0.85 |
| O=C(O)C(F)(OC(F)(F)C(F)(F)C(F)(F)F)C(F)(F)F (stereo not drawn) [HFPO-DA, perfluoro-2-methyl-3-oxahexanoic acid] | 0.0307 | 0.0304 | – | 0.031 | 1.0909 | 265.60 nM | 1.0510 | 8.312 µM | 8.736 µM | 230.40 nM | – | 7.672 µM | – | 240 nM | 1.1308 | 6.848 µM | 7.744 µM | – | – | – |
